Columns and labels:
[1] = molecular target: T1, human B1R receptor (hB1R) (Homo sapiens, UniProt P46663); experiment: FLIPR Ca2+ assay on hB1R-transfected CHO K1 cells, antagonistic action; format: cell-based; details: CHO-K1, 10 μM test substance; agonist Lys-Des-Arg9-bradykinin 0.5 nM; % of maximum achievable inhibition; read-out: hB1R [10 μM] % inhibition
T1 construct: host or cells: CHO K1 cells
T1 sequence (P46663 1-353): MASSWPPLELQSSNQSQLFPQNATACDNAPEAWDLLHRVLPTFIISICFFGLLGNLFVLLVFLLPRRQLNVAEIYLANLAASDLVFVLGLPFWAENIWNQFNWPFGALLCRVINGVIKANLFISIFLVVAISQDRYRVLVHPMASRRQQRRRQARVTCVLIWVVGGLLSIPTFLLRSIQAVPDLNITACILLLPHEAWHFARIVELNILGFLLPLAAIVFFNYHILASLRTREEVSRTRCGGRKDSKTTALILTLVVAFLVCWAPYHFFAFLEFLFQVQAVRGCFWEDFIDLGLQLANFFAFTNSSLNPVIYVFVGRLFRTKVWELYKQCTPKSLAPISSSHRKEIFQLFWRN

[2] = molecular target: T2, B1R receptor of the rat (rB1R) (Rattus norvegicus, UniProt P97583); experiment: FLIPR Ca2+ assay on rB1R-transfected CHO K1 cells, antagonistic action; format: cell-based; details: CHO-K1, 10 μM test substance; agonist Des-Arg9-bradykinin 100 nM; % of maximum achievable inhibition; read-out: rB1R [10 μM] % inhibition
T2 construct: host or cells: CHO K1 cells
T2 sequence (P97583 1-337): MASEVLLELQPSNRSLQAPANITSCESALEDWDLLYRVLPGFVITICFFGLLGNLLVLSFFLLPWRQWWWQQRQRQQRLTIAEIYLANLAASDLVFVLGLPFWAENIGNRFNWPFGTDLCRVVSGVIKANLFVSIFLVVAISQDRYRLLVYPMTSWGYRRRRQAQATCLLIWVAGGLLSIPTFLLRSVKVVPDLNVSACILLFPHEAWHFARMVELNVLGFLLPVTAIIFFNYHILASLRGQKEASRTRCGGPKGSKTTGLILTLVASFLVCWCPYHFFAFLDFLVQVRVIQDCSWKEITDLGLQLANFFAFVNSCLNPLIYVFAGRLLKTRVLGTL

SMILES | inhibition at 10 µM [1] [%] | inhibition at 10 µM [2] [%]
CN(CCCC1CCC(c2ccccc2)(N2CCCC2)CC1)C(=O)COCC1CCc2ccccc2N1S(=O)(=O)c1ccc(Cl)c(Cl)c1 (centres unmarked) [Compound 133, 2-((1-(3,4-dichlorophenylsulfonyl)-1,2,3,4-tetrahydroquinolin-2-yl)methoxy)-N-methyl-N-(3-(4-phenyl-4-(pyrrolidin-1-yl)cyclohexyl)propyl)acetamide] | 92 | 42
COc1cc(C)c(S(=O)(=O)N2CCC(OCC(=O)N(C)CC3CCC(CCc4ccccc4)(N4CCN(C)CC4)CC3)C2)c(C)c1 (centres unmarked) [Compound 177, 2-(1-(4-methoxy-2,6-dimethylphenylsulfonyl)pyrrolidin-3-yloxy)-N-methyl-N-((4-(4-methylpiperazin-1-yl)-4-phenethylcyclohexyl)methyl)acetamide] | 103 | 76
CN(CCCC1CCC(CCc2ccccc2)(N2CCCC2)CC1)C(=O)CC1CCCCN1S(=O)(=O)c1cccc(C(F)(F)F)c1 (centres unmarked) [Compound 134, N-methyl-N-(3-(4-phenethyl-4-(pyrrolidin-1-yl)cyclohexyl)propyl)-2-(1-(3-(trifluoromethyl)phenylsulfonyl)piperidin-2-yl)acetamide] | 102 | 38
COc1cc(C)c(S(=O)(=O)N2CCCC(OCC(=O)N(C)CC3CCC(Cc4ccccc4)(N4CCN(C)CC4)CC3)C2)c(C)c1 (centres unmarked) [Compound 184, N-((4-benzyl-4-(4-methylpiperazin-1-yl)cyclohexyl)methyl)-2-(1-(4-methoxy-2,6-dimethylphenylsulfonyl)piperidin-3-yloxy)-N-methylacetamide] | 93 | 65
COc1cc(C)c(S(=O)(=O)N(C)CCOCC(=O)N2CCC(CCc3ccccc3)(N(C)C)CC2)c(C)c1 [Compound 48, N-(2-(2-(4-(dimethylamino)-4-phenethylpiperidin-1-yl)-2-oxoethoxy)ethyl)-4-methoxy-N,2,6-trimethylbenzenesulfonamide] | 102 | 100
O=C(COCC1CCCCN1S(=O)(=O)c1c(Cl)cc(Cl)cc1Cl)NC1CCC(Cc2ccccc2)(N2CCCC2)CC1 (centres unmarked) [Compound 163, N-(4-benzyl-4-(pyrrolidin-1-yl)cyclohexyl)-2-((1-(2,4,6-trichlorophenylsulfonyl)piperidin-2-yl)methoxy)acetamide] | 84 | 93
COc1cc(C)c(S(=O)(=O)N(C)CCOCC(=O)NCC2CCC(c3ccccc3)(N3CCOCC3)CC2)c(C)c1 (centres unmarked) [Compound 185, 2-(2-(4-methoxy-N,2,6-trimethylphenylsulfonamido)ethoxy)-N-((4-morpholino-4-phenylcyclohexyl)methyl)acetamide] | 93 | 65
CN1CCN(C2(CCc3ccccc3)CCC(CN(C)C(=O)COCCN(C)S(=O)(=O)c3c(Cl)cc(Cl)cc3Cl)CC2)CC1 (centres unmarked) [Compound 195, N-methyl-N-((4-(4-methylpiperazin-1-yl)-4-phenethylcyclohexyl)methyl)-2-(2-(2,4,6-trichloro-N-methylphenylsulfonamido)ethoxy)acetamide] | 100 | 28
COc1cc(C)c(S(=O)(=O)N2CCCCC2COCC(=O)N(C)CC2CCC(c3ccccc3)(N3CCCC3)CC2)c(C)c1 (centres unmarked) [Compound 66, 2-((1-(4-methoxy-2,6-dimethylphenylsulfonyl)piperidin-2-yl)methoxy)-N-methyl-N-((4-phenyl-4-(pyrrolidin-1-yl)cyclohexyl)methyl)acetamide] | 102 | 100
CN(C)C1(c2ccccc2)CCC(NC(=O)COCCN(C)S(=O)(=O)c2c(Cl)cc(Cl)cc2Cl)CC1 (centres unmarked) [Compound 199, N-(4-(dimethylamino)-4-phenylcyclohexyl)-2-(2-(2,4,6-trichloro-N-methylphenylsulfonamido)ethoxy)acetamide] | 76 | 36
O=C(CC1CCCCN1S(=O)(=O)c1cccc(C(F)(F)F)c1)N1CCC(c2ccccc2)(N2CCN(c3ccncc3)CC2)CC1 (centres unmarked) [Compound 113, 1-(4-phenyl-4-(4-(pyridin-4-yl)piperazin-1-yl)piperidin-1-yl)-2-(1-(3-(trifluoromethyl)phenylsulfonyl)piperidin-2-yl)ethanone] | 79 | 74
CN(CC1CCC(Cc2ccccc2)(N2CCCC2)CC1)C(=O)COCC1CCc2ccccc2N1S(=O)(=O)c1ccc(Cl)c(Cl)c1 (centres unmarked) [Compound 127, N-((4-benzyl-4-(pyrrolidin-1-yl)cyclohexyl)methyl)-2-((1-(3,4-dichlorophenylsulfonyl)-1,2,3,4-tetrahydroquinolin-2-yl)methoxy)-N-methylacetamide] | 90 | 54
COc1cc(C)c(S(=O)(=O)N2CCC(OCC(=O)N3CCC(c4cccc(F)c4)(N4CCN(C)CC4)CC3)C2)c(C)c1 (centres unmarked) [Compound 217, 1-(4-(3-Fluorophenyl)-4-(4-methylpiperazin-1-yl)piperidin-1-yl)-2-(1-(4-methoxy-2,6-dimethylphenylsulfonyl)pyrrolidin-3-yloxy)ethanone] | 100 | 98
CN(C)C1(Cc2ccccc2)CCN(C(=O)CC2CCCCN2S(=O)(=O)c2cccc(C(F)(F)F)c2)CC1 (centres unmarked) [Compound 97, 1-(4-benzyl-4-(dimethylamino)piperidin-1-yl)-2-(1-(3-(trifluoromethyl)phenylsulfonyl)piperidin-2-yl)ethanone] | 102 | 91
CN1CCN(C2(CCc3ccccc3)CCN(C(=O)CC3CCCCN3S(=O)(=O)c3cccc(C(F)(F)F)c3)CC2)CC1 (centres unmarked) [Compound 119, 1-(4-(4-methylpiperazin-1-yl)-4-phenethylpiperidin-1-yl)-2-(1-(3-(trifluoromethyl)phenylsulfonyl)piperidin-2-yl)ethanone] | 90 | 69
COc1cc(C)c(S(=O)(=O)N2CCCCC2COCC(=O)N(C)CC2CCC(CCc3ccccc3)(N3CCN(C)CC3)CC2)c(C)c1 (centres unmarked) [Compound 144, 2-((1-(4-methoxy-2,6-dimethylphenylsulfonyl)piperidin-2-yl)methoxy)-N-methyl-N-((4-(4-methylpiperazin-1-yl)-4-phenethylcyclohexyl)methyl)acetamide] | 103 | 111
CN(CCC1CCC(CCc2ccccc2)(N(C)C)CC1)C(=O)CC1CCCCN1S(=O)(=O)c1cccc(C(F)(F)F)c1 (centres unmarked) [Compound 76, N-(2-(4-(dimethylamino)-4-phenethylcyclohexyl)ethyl)-N-methyl-2-(1-(3-(trifluoromethyl)phenylsulfonyl)piperidin-2-yl)acetamide] | 98 | 99
CN(CCC1CCC(c2ccccc2)(N2CCCC2)CC1)C(=O)CC(NS(=O)(=O)c1ccc2ccccc2c1)c1ccccc1 (centres unmarked) [Compound 40, N-methyl-3-(naphthalene-2-sulfonamido)-3-phenyl-N-(2-(4-phenyl-4-(pyrrolidin-1-yl)cyclohexyl)ethyl)propanamide] | 103 | 101
CN(CCC1CCC(Cc2ccccc2)(N(C)C)CC1)C(=O)CC(NS(=O)(=O)c1ccc2ccccc2c1)c1ccccc1 (centres unmarked) [Compound 86, N-(2-(4-benzyl-4-(dimethylamino)cyclohexyl)ethyl)-N-methyl-3-(naphthalene-2-sulfonamido)-3-phenylpropanamide] | 101 | 99
CN(CCCC1CCC(c2ccccc2)(N2CCCC2)CC1)C(=O)CC(NS(=O)(=O)c1ccc2ccccc2c1)c1ccccc1 (centres unmarked) [Compound 128, N-methyl-3-(naphthalene-2-sulfonamido)-3-phenyl-N-(3-(4-phenyl-4-(pyrrolidin-1-yl)cyclohexyl)propyl)propanamide] | 98 | 53
CN(C)C1(c2ccccc2)CCN(C(=O)COCC2CCc3ccccc3N2S(=O)(=O)c2ccc(Cl)c(Cl)c2)CC1 (centres unmarked) [Compound 109, 2-((1-(3,4-dichlorophenylsulfonyl)-1,2,3,4-tetrahydroquinolin-2-yl)methoxy)-1-(4-(dimethylamino)-4-phenylpiperidin-1-yl)ethanone] | 80 | 78
CN(C)C1(Cc2ccccc2)CCN(C(=O)COCC2CCc3ccccc3N2S(=O)(=O)c2ccc(Cl)c(Cl)c2)CC1 (centres unmarked) [Compound 36, 1-(4-benzyl-4-(dimethylamino)piperidin-1-yl)-2-((1-(3,4-dichlorophenylsulfonyl)-1,2,3,4-tetrahydroquinolin-2-yl)methoxy)ethanone] | 101 | 101

From patent US20090253669A1, “Substituted Sulfonamide Compounds” (GRUENENTHAL GmbH, priority 2008, published 2009)
